# Laboratory results reported in patent publication US20110129463A1, “Quinazolin-4(3A)-One Derivatives and Methods of Use Thereof” (Proteologics, Ltd., priority 2009, published 2011).
# What was measured:
# A375 cells = assay: Viability of A375 cancer cells (WST-1 reagent); format: cell-based; conditions: viability 72 hours post treatment
# Experimental: A375 cells (CRL-1619, Melanoma cancer cells, American Type Culture Collection (“ATCC”), Manassas Va., USA) were cultured with RPMI and 10% FBS (300 cells per well). Twenty-four hours after seeding the cells were treated with different concentrations of Compound A. Viability of the cells was tested seventy-two hours post treatment using WST-1 reagent (Roche). The LD50s were calculated using Prism software (Graphpad). Compound A killed the A375 cancer cells with LD50 of 20 μM (FIG. 2A).
# oxazolone-induced DTH = assay: Oxazolone-induced delayed-type hypersensitivity (DTH), ear swelling; format: in vivo, BALB/c mice; conditions: oral, 1 hour before oxazolone challenge; compared with the control
# From the text: A delayed-type hypersensitivity (DTH) reaction is an expression of cell-mediated immunity and plays a major role in the pathology and chronicity of many inflammatory disorders. Delayed-type hypersensitivity (DTH) reactions can be induced by various allergens, including oxazolone, 2,4-dinitrofluorobenzene (DNFB) and sheep red blood cells (SRBCs). One of the most characteristic DTH phenomena is contact hypersensitivity, which is characterized by swelling and by increased tissue levels of cytokines. Contact hypersensitivity (CHS) is a T cell-mediated immune reaction in response to cutaneous sensitization and challenge with reactive haptens that are capable of binding directly to soluble and cell-associated proteins and recognized by T cells in the context of self-MHC products. The cells that recognize antigen-protein complex in the skin are the Langerhans cells (LCs). After topically allergen application, Langerhans cells (LCs), the major antigen-presenting cells (APCs) for the induction of immune responses in skin, show enhanced expression of surface MHC class II molecules, and start to emigrate from the skin to regional lymph nodes where specific lymphocyte activation is thought to occur. After a second contact with the hapten, T cells are first recruited into tissues and then activated by antigen-presenting cells to produce cytokines that mediate local inflammation. Myeloperoxidase (MPO) is an enzyme exclusively present in neutrophil granules, which is commonly used as an index of granulocyte infiltration, and its inhibition is indicative of an anti-inflammatory action.
# The goal of the present study is to examine the effects of Compounds A, B and C on oxazolone-induced DTH. […]
# Ear swelling response was determined by ear thickness measured with a micrometer before and 24 hours after oxazolone challenge and reported as the mean change in ear thickness (ΔT±S.E.M.). Percent suppression of ear swelling response was calculated as % suppression=[1−(ΔT of sensitized mice exposed to experimental treatment/ΔT of sensitized mice exposed to vehicle treatment)]×100. […]
# [1] = system: D122 Lewis lung cancer cells; assay: Formation of lung cancer metastasis, D122 cells injected into tail vein; format: in vivo, C57BL mice; conditions: 20 mg/kg intraperitoneal twice daily for 28 days
# Experimental: Suppressive activity against formation of lung cancer metastasis was tested using D122 Lewis lung cancer cells injected into the tail vein of male C57BL mice. Animals were treated twice daily by intraperitoneal injection of Compound A at 20 mg/kg or solvent (5% DMSO, 10% PEG400, 5% Solutol HS15, 5% Tween 80). Treatment was continued for 28 days. On day 33, animals were sacrificed, lungs were removed and weighed. When the Compound A and vehicle groups are compared, there is about a 50% decrease in added lung weight in the Compound A group (FIG. 3). The average weight gain in the control group was 250 mg while in the Compound A group it was only 125 mg. Analyzing the data using two tailed T test indicate a the data is significant (pValue=0.0085). The effect seen following administration of Compound A, supports the claim that this compound has anti-metastatic activity.
# A375 melanoma cell line = assay: TRANSWELL cell migration of A375 melanoma cells; format: cell-based; conditions: Homo sapiens, A-375, 24 hours, read-out: IC50 of inhibitory effect on cell-migration
# Experimental: The A375 cells were cultured with RPMI and 10% FBS. The cells were starved for 24 hours in medium without FBS. At the end of the starvation, 5×10^4 cells in medium without FBS were placed in the upper chamber of 24-well, TRANSWELL apparatus (Corning TRANSWELL® polycarbonate membrane inserts, 5 μm pore size with solvent (DMSO/PEG400) or different concentrations of Compound A, B, C or D. Medium with FBS and compound A, B, C or D was added to the bottom chamber. Twenty-four hours later the cells from the upper chamber were removed with a cotton swab. Cells that migrated to the lower side of the membrane were stained with Calcein-AM (Sigma) and images were taken with a fluorescence microscope. The number of migrating cells was quantified by Image J software and the IC50 values were calculated using Prism software (Graphpad).
# EAE = EAE model for multiple sclerosis, clinical score; format: in vivo, CSJL/F1 mice
# Experimental: The EAE model in CSJL/F1 mice is an established model for multiple sclerosis. Disease is induced in all mice by the injection of the encephalitogenic emulsion (MSCH/CFA, 0.05 ml injected into the left foot-pad of each mouse). Treatment with Compound A at 10 and 20 mg/kg or solvent (5% DMSO, 10% PEG400, 5% Solutol HS15, 5% Tween 80) by intraperitoneal injection, was started from day 1 of the study and administered twice daily in the first 9 days and then once daily until the end of the study. Scoring of EAE clinical signs were initiated from the 10th day post-EAE induction and continued daily. The clinical signs were recorded according to a grading system described in the table 1.
SMILES,LD50 (killing of A375 cancer cells) (A375 cells) [µM],anti-inflammatory activity in DTH study (FIG. 7) (oxazolone-induced DTH),"average weight gain (added lung weight) ([1]; day 33, control group 250 mg) [mg]",decrease in added lung weight vs vehicle group ([1]; lungs weighed on day 33) [%],IC50 (A375 melanoma cell line) [nM],effect on EAE clinical signs (EAE; 10 mg/kg intraperitoneal),EAE clinical signs relative to the score for water and vehicle controls (EAE; 20 mg/kg intraperitoneal)
"O=c1c2ccccc2nc(/C=C/c2ccc(O)cc2)n1-c1cccc([N+](=O)[O-])c1 [Compound A, 2-[2-(4-Hydroxyphenyl)-vinyl]-3-(3-nitrophenyl)-4-quinazolone]",20,same anti-inflammatory activity as the control,125,~50,100,No effect,about half
"COc1ccc(/C=C/c2nc3ccccc3c(=O)n2-c2cccc([N+](=O)[O-])c2)cc1 [Compound B, (E)-2-(4-methoxystyryl)-3-(3-nitrophenyl)quinazolin-4(3H)-one]",–,same anti-inflammatory activity as the control,–,–,45,–,–
"O=c1c2ccccc2nc(/C=C/c2ccc(Br)cc2)n1-c1cccc([N+](=O)[O-])c1 [Compound C, (E)-2-(4-bromostyryl)-3-(3-nitrophenyl)quinazolin-4(3H)-one]",–,same anti-inflammatory activity as the control,–,–,920,–,–
"Cn1ccc(/C=C/c2nc3ccccc3c(=O)n2-c2cccc(N(O)O)c2)n1 [Compound D, (E)-3-(3-(dihydroxyamino)phenyl)-2-(2-(1-methyl-1H-pyrazol-3-yl)vinyl)quinazolin-4(3H)-one]",–,–,–,–,61,–,–
